# Molecular target: Arabidopsis thaliana SHMT
# Assay: SHMT activity assay (ED50 SHMT), coupled with N5,N10-CH2-THF dehydrogenase, NADH at 340 nm
# Assay type: biochemical
# How it was run: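 His-tagged SHMT purified on Ni-NTA. NADH formation followed at 340 nm for 30 min; ED50 from inhibition of initial velocity.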
# [1] = inhibition of initial velocity of Arabidopsis thaliana SHMT
# [2] = Table 2, values given as upper bounds
# [3] = Arabidopsis thaliana SHMT enzyme assay, values given as upper bounds
# [4] = Table 2, Arabidopsis thaliana SHMT enzyme assay, values given as upper bounds
SMILES,EC50 [2],also measured
Cc1n[nH]c2c1C(c1ccc(Cl)s1)(C1CC1)C(C#N)=C(N)O2 (stereo not shown) [Compound 4.74],,EC50 [1]: < 1000 nM
Cc1n[nH]c2c1C(c1ccc(OC(F)(F)F)cc1)(C(C)C)C(C#N)=C(N)O2 (racemic) [Compound 2.145.],< 1000 nM,
Cc1n[nH]c2c1C(c1cc(Cl)c3c(c1)CCO3)(C1CCC1)C(C#N)=C(N)O2 (stereo not shown) [Compound 4.12],,EC50 [1]: < 10 nM
Cc1n[nH]c2c1C(c1cc(Cl)cc(-c3ccc(NS(=O)(=O)C(F)(F)F)cc3)c1)(C1CCC1)C(C#N)=C(N)O2 (stereo not shown) [Compound 2.595],< 10 nM,
COc1ccc2cc(C3(C4(F)CC4)C(C#N)=C(N)Oc4[nH]nc(C)c43)ccc2c1 (racemic) [Compound 4.40],,EC50 [1]: < 10 nM
Cc1n[nH]c2c1C(c1cc(CNC(=O)CCC(=O)O)cc(C(F)(F)F)c1)(C1CCC1)C(C#N)=C(N)O2 (stereo not shown) [Compound 2.649],< 10 nM,
Cc1n[nH]c2c1C(CCC(F)(F)F)(c1cccc(C(F)(F)F)c1)C(C#N)=C(N)O2 (stereo not shown) [Compound 2.101.],< 10000 nM,
Cc1n[nH]c2c1C(c1ccc(CCc3nnn[nH]3)c(-c3nnn[nH]3)c1)(C1CCC1)C(C#N)=C(N)O2 (stereo not shown) [Compound 2.654],,EC50 [3]: < 100 nM
N#CC1=C(N)Oc2[nH]ncc2C1(c1cc(Br)cc(Br)c1)C1CCC1 (stereo not shown) [Compound 2.251],,EC50 [4]: < 10 nM
Cc1n[nH]c2c1C(c1cc(Cl)cc(N(C)C(=O)Cc3nnn[nH]3)c1)(C1CCC1)C(C#N)=C(N)O2 (stereo not shown) [Compound 2.699],,EC50 [3]: < 100 nM
CCC1(c2ccc3[nH]c(=O)oc3c2)C(C#N)=C(N)Oc2[nH]nc(C)c21 (stereo not shown) [Compound 4.72],,EC50 [1]: < 1000 nM
CCC1(c2ccc(O)c([N+](=O)[O-])c2)C(C#N)=C(N)Oc2[nH]nc(C)c21 (stereo not shown) [Compound 2.37.],< 1000 nM,
CCCC1(c2ccc(Cl)c(Cl)c2)C(C#N)=C(N)Oc2[nH]nc(C)c21 (stereo not shown) [Compound 2.90.],< 1000 nM,
N#CC1=C(N)Oc2[nH]nc(C(F)F)c2C1(c1cccc(C#N)c1)C1CCC1 (stereo not shown) [Compound 2.194.],< 1000 nM,
COC(=O)c1ccc(-c2cc(C#N)cc(C3(C4(F)COC4)C(C#N)=C(N)Oc4[nH]nc(C)c43)c2)s1 (stereo not shown) [Compound 2.676],,EC50 [3]: < 100 nM
Cc1n[nH]c2c1C(c1cc(Cl)cc(CC(=O)O)c1)(C1(F)CC1)C(C#N)=C(N)O2 (stereo not shown) [Compound 2.498],< 100 nM,
Cc1n[nH]c2c1C(c1ccc(-c3ccc(C(F)(F)F)cc3)s1)(C1CCC1)C(C#N)=C(N)O2 (stereo not shown) [Compound 4.26],,EC50 [1]: < 10 nM
Cc1n[nH]c2c1C(c1cc(CCCc3nnn[nH]3)cc(-c3nnn[nH]3)c1)(C(C)C)C(C#N)=C(N)O2 (stereo not shown) [Compound 2.715],,EC50 [3]: < 1000 nM
Cc1n[nH]c2c1C(c1cccc([N+](=O)[O-])c1)(C(F)(F)F)C(C#N)=C(N)O2 (stereo not shown) [Compound 2.68.],< 1000 nM,
CC(C)C1(c2cc(Cl)cc(Br)c2)C(C#N)=C(N)Oc2[nH]ncc21 (stereo not shown) [Compound 2.317],,EC50 [4]: < 10 nM
CCC1(c2cc(F)cc(Br)c2)C(C#N)=C(N)Oc2[nH]nc(C)c21 (racemic) [Compound 2.467],< 100 nM,
Cc1n[nH]c2c1C(c1ccc(CC(=O)O)c(C(F)(F)F)c1)(C1CCC1)C(C#N)=C(N)O2 (stereo not shown) [Compound 2.544],< 100 nM,
N#CC1=C(N)Oc2[nH]nc(C3CC3)c2C1(c1ccc(Cl)cc1)C1CCC1 (stereo not shown) [Compound 2.140.],< 10000 nM,

SMILES,EC50 [2],also measured
N#CC1=C(N)Oc2[nH]ncc2C1(c1cccc(SC(F)(F)F)c1)C1CCC1 (stereo not shown) [Compound 2.297],,EC50 [4]: < 100 nM
COC(=O)c1cccc(-c2cc(Cl)cc(C3(C4CCC4)C(C#N)=C(N)Oc4[nH]nc(C)c43)c2)c1 (stereo not shown) [Compound 2.456],< 10 nM,
Cc1n[nH]c2c1C(c1cc(C#N)cc(N(C)C(=O)c3cccc(C(=O)O)c3)c1)(C1CCC1)C(C#N)=C(N)O2 (stereo not shown) [Compound 2.633],< 100 nM,
Cc1n[nH]c2c1C(c1cc(Br)cc(OCC(=O)O)c1)(C1CCC1)C(C#N)=C(N)O2 (stereo not shown) [Compound 2.507],< 10000 nM,
COc1ccc(C2(C3CCC3)C(C#N)=C(N)Oc3[nH]nc(C)c32)cc1C(F)(F)F (stereo not shown) [Compound 2.176.],< 10 nM,
Cc1ccc2cc(C3(C4CCC4)C(C#N)=C(N)Oc4[nH]nc(C)c43)cc(C(F)(F)F)c2n1 (stereo not shown) [Compound 4.19],,EC50 [1]: < 10 nM
Cc1n[nH]c2c1C(c1cc(C#N)cc(-c3cc(F)c(O)c(F)c3)c1)(C1CCC1)C(C#N)=C(N)O2 (stereo not shown) [Compound 2.484],< 10 nM,
Cc1n[nH]c2c1C(c1cc(C#N)cc(CCC#N)c1)(C(C)C)C(C#N)=C(N)O2 (stereo not shown) [Compound 2.671],,EC50 [3]: < 10 nM
CCOc1n[nH]c2c1C(c1cc(Cl)cc(Cl)c1)(C1CCC1)C(C#N)=C(N)O2 (stereo not shown) [Compound 2.387],,EC50 [4]: < 100 nM
Cc1n[nH]c2c1C(c1cc(C#N)cc(-c3cccc(Cl)c3)c1)(C1CCC1)C(C#N)=C(N)O2 (stereo not shown) [Compound 2.332],,EC50 [4]: < 10 nM
CCC1(c2cc(F)c(F)cc2F)C(C#N)=C(N)Oc2[nH]nc(C)c21 (stereo not shown) [Compound 3.3],,EC50 [1]: < 10000 nM
Cc1n[nH]c2c1C(c1ccc(CCCC#N)c(Cl)c1)(C1CCC1)C(C#N)=C(N)O2 (stereo not shown) [Compound 2.673],,EC50 [3]: < 10 nM
Cc1n[nH]c2c1C(c1ccc(-c3ccccc3)s1)(C1CCC1)C(C#N)=C(N)O2 (stereo not shown) [Compound 4.10],,EC50 [1]: < 10 nM
Cc1cccc(Oc2cc(Cl)cc(C3(C4CCC4)C(C#N)=C(N)Oc4[nH]nc(C)c43)c2)c1 (stereo not shown) [Compound 2.239],,EC50 [4]: < 100 nM
COc1c(F)cc(C2(C3CCC3)C(C#N)=C(N)Oc3[nH]nc(C)c32)cc1F (stereo not shown) [Compound 2.447],< 10 nM,
CCCC1(c2cc(C#N)cc(C(F)(F)F)c2)C(C#N)=C(N)Oc2[nH]nc(COC)c21 (stereo not shown) [Compound 2.589],< 100 nM,
Cc1n[nH]c2c1C(c1cc(Cl)cc(CC#N)c1)(C1CCC1)C(C#N)=C(N)O2 (stereo not shown) [Compound 2.568],< 10 nM,
COCOc1cc(C(F)(F)F)cc(C2(C3CCC3)C(C#N)=C(N)Oc3[nH]nc(C)c32)c1 (stereo not shown) [Compound 2.476],< 10 nM,
CCC1(c2cccc(F)c2)C(C#N)=C(N)Oc2[nH]nc(C)c21 (racemic) [Compound 2.9.],< 1000 nM,
COC(=O)c1ccc(-c2cc(C#N)cc(C3(C4CCC4)C(C#N)=C(N)Oc4[nH]nc(C)c43)c2)cc1C(=O)OC (stereo not shown) [Compound 2.550],< 10 nM,
Cc1n[nH]c2c1C(c1cc(-c3ccsc3)cs1)(C1CCC1)C(C#N)=C(N)O2 (stereo not shown) [Compound 4.33],,EC50 [1]: < 10 nM
Cc1n[nH]c2c1C(c1cc(C#N)cc(N3CCCC3=O)c1)(C1(F)CC1)C(C#N)=C(N)O2 (stereo not shown) [Compound 2.452],< 1000 nM,
Cc1n[nH]c2c1C(c1cccc(C(F)(F)F)c1)(C(C)C)C(C#N)=C(N)O2 (stereo not shown) [Compound 2.137.],< 100 nM,

SMILES,EC50 [2],also measured
CCC1(c2cc(Oc3ccccc3)cc(C(F)(F)F)c2)C(C#N)=C(N)Oc2[nH]nc(C)c21 (stereo not shown) [Compound 2.86.],< 1000 nM,
N#CC1=C(N)Oc2[nH]nc(C(F)F)c2C1(c1cc(Cl)cc(Cl)c1)C1CCC1 (stereo not shown) [Compound 2.168.],< 100 nM,
COc1ccc2cc(C3(C4(F)CC4)C(C#N)=C(N)Oc4[nH]ncc43)ccc2c1 (racemic) [Compound 4.75],,EC50 [1]: < 1000 nM
CCCC1(c2cc(C#N)cc(C(F)(F)F)c2)C(C#N)=C(N)Oc2[nH]nc(C(C)C)c21 (stereo not shown) [Compound 2.582],< 10 nM,
CCCC1(c2cc(C#N)cc(C(F)(F)F)c2)C(C#N)=C(N)Oc2[nH]nc(OC)c21 (stereo not shown) [Compound 2.600],< 1000 nM,
CCC1(c2ccc(NC(C)=O)cc2)C(C#N)=C(N)Oc2[nH]nc(C)c21 (stereo not shown) [Compound 2.6.],< 10000 nM,
COc1ccc(C2(C(C)C)C(C#N)=C(N)Oc3[nH]nc(C)c32)cc1Cl (stereo not shown) [Compound 2.124.],< 10 nM,
Cc1n[nH]c2c1C(c1cc(Cl)c(F)c(Cl)c1)(C1CCC1)C(C#N)=C(N)O2 (stereo not shown) [Compound 2.242],,EC50 [4]: < 10 nM
CCCC1(c2cc(Cl)cc(C#N)c2)C(C#N)=C(N)Oc2[nH]nc(COC)c21 (stereo not shown) [Compound 2.591],< 10000 nM,
Cc1n[nH]c2c1C(c1cc(C#N)cc(OCC(=O)O)c1)(C1CCC1)C(C#N)=C(N)O2 (stereo not shown) [Compound 2.625],< 100 nM,
Cc1n[nH]c2c1C(c1cc(Cl)cc(Cl)c1)(C(C)C)C(C#N)=C(N)O2 (stereo not shown) [Compound 2.112.],< 10 nM,
Cc1n[nH]c2c1C(c1ccc3[nH]c(C(F)(F)F)nc3c1)(C1CCC1)C(C#N)=C(N)O2 (stereo not shown) [Compound 4.48],,EC50 [1]: < 100 nM
Cc1n[nH]c2c1C(c1ccc3c(c1)C(F)(F)CCO3)(C1CCC1)C(C#N)=C(N)O2 (stereo not shown) [Compound 4.18],,EC50 [1]: < 10 nM
CCC1(c2cc(Cl)cc(C#N)c2)C(C#N)=C(N)Oc2[nH]nc(COC)c21 (stereo not shown) [Compound 2.587],< 1000 nM,
Cc1n[nH]c2c1C(c1cc(Cl)cc(-c3ccc(C(F)(F)F)cc3)c1)(C1CCC1)C(C#N)=C(N)O2 (stereo not shown) [Compound 2.250],,EC50 [4]: < 10 nM
Cc1n[nH]c2c1C(c1cc(Br)cc(I)c1)(C1CCC1)C(C#N)=C(N)O2 (stereo not shown) [Compound 2.358],,EC50 [4]: < 10 nM
CCC1(c2ccc(Oc3ccccc3)cc2)C(C#N)=C(N)Oc2[nH]nc(C)c21 (stereo not shown) [Compound 2.8.],< 1000 nM,
COc1c(F)cc(-c2ccc(C3(C4CCC4)C(C#N)=C(N)Oc4[nH]nc(C)c43)s2)cc1F (stereo not shown) [Compound 4.50],,EC50 [1]: < 100 nM
N#CC1=C(N)Oc2[nH]ncc2C1(c1cc2ccccc2o1)C1CCC1 (stereo not shown) [Compound 4.54],,EC50 [1]: < 100 nM
CCC1(c2ccc(F)c(Oc3ccccc3)c2)C(C#N)=C(N)Oc2[nH]nc(C)c21 (stereo not shown) [Compound 2.11.],< 1000 nM,
N#CC1=C(N)Oc2[nH]ncc2C1(c1cc(N2CCOCC2)cc(C(F)(F)F)c1)C1CCC1 (stereo not shown) [Compound 2.274],,EC50 [4]: < 10 nM
